Data reported in patent US20060154243A1 (priority 2003, published 2006).

Columns and labels:
[1] = system: control serum LUMC (pooled serum of ten healthy hospital workers); assay type: binding, human
[2] = system: control serum Blood-bank (commercial negative donor pooled serum); assay type: binding, human
[3] = system: rabbit serum obtained by immunizing with SARS-CoV strain Frankfurt 1; assay type: binding
[4] = system: sera SARS-green, SARS-yellow, 1a, 1b, 2, 6, 37, 62 and London; assay type: binding, human

Sequence | Control serum LUMC linear peptides [1] | Control serum LUMC looped peptides [1] | Control Serum Blood-Bank Looped peptides [2] | Control serum Blood-bank linear peptides [2] | Rabbit serum linear peptides [3] | Rabbit serum looped peptides [3] | Recognition of the peptide by sera of individuals infected by SARS-CoV, form recognized [4]
LIMLIIFWFSLEIQD | 1.1 | 0.7 | 0.7 | 0.9 | 0.4 | 0.6 | recognized in linear and in looped form
IFWFSLEIQDLEEPC | 0.7 | 0.8 | 0.8 | 0.8 | 0.3 | 0.5 | recognized in linear and in looped form
ITRMEDAMGQGQNSA | – | – | – | – | 0.1 | 0.4 | only recognized in looped form
VVQRCASNKPHVLED | – | – | – | – | 0.2 | 0.5 | recognized in linear and in looped form
CSCICTVVQRCASNK | – | – | – | – | 0.1 | 0.0 | recognized in linear and in looped form
FWFSLEIQDLEEPCT | 0.3 | 0.8 | 1.1 | 0.5 | 0.1 | 0.5 | recognized in linear and in looped form
TRMEDAMGQGQNSAD | – | – | – | – | 0.4 | 0.4 | only recognized in looped form
VQMTKLATTEELPDE | – | – | – | – | 0.3 | 0.6 | recognized in linear and in looped form
WFSLEIQDLEEPCTK | 0.5 | 0.5 | 0.7 | 0.6 | 0.0 | 0.4 | recognized in linear and in looped form
IMLIIFWFSLEIQDL | 0.7 | 0.4 | 0.6 | 0.8 | 0.9 | 0.1 | recognized in linear and in looped form
VQRCASNKPHVLEDP | – | – | – | – | 0.1 | 0.5 | recognized in linear and in looped form
TKLATTEELPDEFVV | – | – | – | – | 0.1 | 0.6 | recognized in linear and in looped form
MLIIFWFSLEIQDLE | 0.9 | 0.8 | 0.7 | 1.0 | 1.7 | 0.5 | recognized in linear and in looped form
LATTEELPDEFVVVT | – | – | – | – | 0.1 | 0.6 | recognized in linear and in looped form
DPNQTNVVPPALHLV | – | – | – | – | 2.3 | 0.2 | recognized in linear and in looped form
PNQTNVVPPALHLVD | – | – | – | – | 0.4 | 0.2 | recognized in linear and in looped form
IIFWFSLEIQDLEEP | 0.7 | 0.8 | 0.9 | 0.9 | 0.4 | 0.0 | recognized in linear and in looped form
QTNVVPPALHLVDPQ | – | – | – | – | 0.1 | 0.4 | recognized in linear and in looped form
LIIFWFSLEIQDLEE | 0.7 | 0.9 | 0.7 | 0.8 | 0.5 | 0.7 | recognized in linear and in looped form
PPALHLVDPQIQLTI | – | – | – | – | 0.2 | 0.3 | recognized in linear and in looped form
FSLEIQDLEEPCTKV | 0.6 | 0.7 | 1.0 | 0.7 | 0.4 | 0.5 | recognized in linear and in looped form
RMEDAMGQGQNSADP | – | – | – | – | 0.1 | 0.5 | only recognized in looped form
NQTNVVPPALHLVDP | – | – | – | – | 0.1 | 0.4 | recognized in linear and in looped form
RCASNKPHVLEDPCK | – | – | – | – | 0.1 | 0.6 | recognized in linear and in looped form
SCICTVVQRCASNKP | – | – | – | – | 0.0 | 0.8 | recognized in linear and in looped form
CICTVVQRCASNKPH | – | – | – | – | 0.0 | 0.5 | recognized in linear and in looped form
MEDAMGQGQNSADPK | – | – | – | – | 0.1 | 0.4 | only recognized in looped form
QRCASNKPHVLEDPC | – | – | – | – | 0.1 | 0.5 | recognized in linear and in looped form
VVQMTKLATTEELPD | – | – | – | – | 0.3 | 0.6 | recognized in linear and in looped form
